The values below come from patent US20240254123A1, “PYRIDOPYRIMIDINE DERIVATIVES USEFUL AS WEE1 KINASE INHIBITORS” (APREA THERAPEUTICS, INC., priority 2021, published 2024).

The target of experiment [1] is T1, WEE1 (Homo sapiens, UniProt P30291).
T1 construct: Drug treated cells are fixed and stained with propidium iodide (PI); endogenous in cells
The experiment in a line: Guava flow cytometry cell cycle assay (DNA content per cell, propidium iodide). Type of experiment: cell-based. The settings on record: for WEE1 Guava MEC Guava MEC: single agent, unit assumed; for WEE1 Guava MEC with 20 nM GEM: in µM (unit assumed). The text has this:
In this example, compounds described herein were subject to an assay that detects changes the phases of the cell cycle upon drug treatment, permitting the identification of drugs that affect cell proliferation in a specific manner. For example, problematic DNA replication causes the percentage of cells in S phase to increase. Thus, quantification of cells in S phase permits identification of drugs that cause defects in DNA replication. Similarly, drugs that selectively defects in progression through G2/M can also be identified. Moreover, synergy between assayed drugs and known cell cycle regulators can be determined, as exemplified by the effect of ATR inhibition when combined with agents that slow DNA replication, which causes replication fork collapse into DSBs and complete loss of DNA synthesis. Two novel drugs can also be combined to quantify synergistic effects on specific cell cycle phases.
The assay operates by the quantification of DNA content per cell by flow cytometry. Cells are assessed for effects on cell cycle using a Guava EasyCyte™ flow cytometer (Austin, TX). Drug treated cells are fixed and stained with propidium iodide (PI) and resuspended in phosphate-buffered saline containing the PI staining buffer. During flow cytometry, PI is excited at 528 nm and is detected in a 610/20 bandpass. Readout of the […] is optical density of DNA-staining dye. The assay generates a histogram showing count of cells by amount of DNA, which is an indicator of place in the cell cycle. This rapid assay detects relative changes in the cell cycle upon drug treatment upon comparison vehicle-treated and single-agent controls for detection of combinatorial interactions. See, Table 4.
On the technique in general: Flow cytometry measures light scatter and fluorescence of single cells or particles in a stream.

In experiment [2] the target is T1, WEE1. Kind of experiment: in vitro enzymatic inhibitory activity, WEE1 kinase, 10-dose IC50 mode. It is filed as biochemical. The settings on record: 10 μM ATP. As for the experimental part:
(§1) Compounds were tested against two kinases.
(§2) Data includes raw data, % Enzyme activity (relative to DMSO controls) and curve fits.

A further experiment deals with PLK1 (Homo sapiens, UniProt P53350). The experiment in a line: in vitro enzymatic inhibitory activity, PLK1 kinase, 10-dose IC50 mode. Type of experiment: biochemical. The settings on record: 10 μM ATP. As for the experimental part: as §1, §2
PLK1, sequence (P53350 whole entry, species assumed): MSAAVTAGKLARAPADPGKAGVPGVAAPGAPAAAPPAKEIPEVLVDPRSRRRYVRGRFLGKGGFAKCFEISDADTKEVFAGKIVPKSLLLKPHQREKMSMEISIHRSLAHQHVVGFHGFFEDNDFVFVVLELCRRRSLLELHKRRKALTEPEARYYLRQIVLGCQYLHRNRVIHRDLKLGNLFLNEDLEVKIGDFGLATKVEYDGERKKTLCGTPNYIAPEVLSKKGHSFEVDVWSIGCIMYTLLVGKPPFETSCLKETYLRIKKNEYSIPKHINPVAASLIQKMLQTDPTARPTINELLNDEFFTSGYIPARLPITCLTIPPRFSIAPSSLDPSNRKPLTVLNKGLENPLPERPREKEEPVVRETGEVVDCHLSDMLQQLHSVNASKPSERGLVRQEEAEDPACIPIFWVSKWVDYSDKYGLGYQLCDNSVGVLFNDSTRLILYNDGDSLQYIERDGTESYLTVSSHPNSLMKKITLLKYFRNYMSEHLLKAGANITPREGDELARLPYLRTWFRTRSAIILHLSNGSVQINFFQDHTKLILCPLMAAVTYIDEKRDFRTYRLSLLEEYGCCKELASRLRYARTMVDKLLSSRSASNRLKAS

Each structure is given as a SMILES string. “And” between values parts separate entries of the source, which are not always exact repeats. Identical values can stand only once.

T1 sequence (P30291 whole entry): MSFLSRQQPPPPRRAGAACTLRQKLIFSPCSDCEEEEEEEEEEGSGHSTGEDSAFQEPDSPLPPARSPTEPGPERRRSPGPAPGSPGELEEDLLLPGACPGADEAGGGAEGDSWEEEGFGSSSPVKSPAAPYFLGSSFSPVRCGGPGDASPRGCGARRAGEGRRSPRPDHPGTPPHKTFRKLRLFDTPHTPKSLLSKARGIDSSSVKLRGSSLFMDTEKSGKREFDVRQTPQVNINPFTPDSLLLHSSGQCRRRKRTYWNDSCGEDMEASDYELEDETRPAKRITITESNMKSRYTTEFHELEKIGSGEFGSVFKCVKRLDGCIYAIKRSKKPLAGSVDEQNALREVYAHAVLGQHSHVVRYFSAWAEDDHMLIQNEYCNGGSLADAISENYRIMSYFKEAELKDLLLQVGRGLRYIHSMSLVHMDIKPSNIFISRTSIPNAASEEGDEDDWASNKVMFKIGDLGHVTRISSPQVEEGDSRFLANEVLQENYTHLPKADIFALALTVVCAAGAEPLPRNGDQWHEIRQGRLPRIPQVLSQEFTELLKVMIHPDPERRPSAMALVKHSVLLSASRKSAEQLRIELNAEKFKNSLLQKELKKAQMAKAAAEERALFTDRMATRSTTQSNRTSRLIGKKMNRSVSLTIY

By IC50 is commonly meant the midpoint of a concentration-inhibition curve. Higher therefore signals lower potency. For the compound `CN1CCc2ccc(Nc3ncc4c(=O)n(-c5c(Cl)cccc5Cl)cc(Br)c4n3)cc2C1` [Compound P11, 8-bromo-6-(2,6-dichlorophenyl)-2-[(2-methyl-3,4-dihydro-1H-isoquinolin-7-yl)amino]pyrido[4,3-d]pyrimidin-5-one], at WEE1 [1], the WEE1 Guava MEC Guava MEC was 0.313 µM and the “WEE1 Guava MEC with 20 nM GEM” value is listed as 0.156. The compound also had a half-maximal inhibitory concentration (IC50) against WEE1 [2] of 31 nM.
In the case of `O=c1c2cnc(Nc3ccc4c(c3)CNCC4)nc2c(Br)cn1-c1c(Cl)cccc1Cl` [Compound P10, 8-bromo-6-(2,6-dichlorophenyl)-2-(1,2,3,4-tetrahydroisoquinolin-7-ylamino)pyrido[4,3-d]pyrimidin-5-one], on WEE1 [1], the WEE1 Guava MEC Guava MEC is 0.313 µM and the “WEE1 Guava MEC with 20 nM GEM” value came to 0.156. At WEE1 [2], the IC50 is 27 nM.
Regarding `CCc1cn(-c2c(Cl)cccc2Cl)c(=O)c2cnc(Nc3cnn(C4CCNCC4)c3)nc12` [Compound P4, 6-(2,6-dichlorophenyl)-8-ethyl-2-[[1-(4-piperidyl)pyrazol-4-yl]amino]pyrido[4,3-d]pyrimidin-5-one], on WEE1 [1], the WEE1 Guava MEC Guava MEC was 1.25 µM and the “WEE1 Guava MEC with 20 nM GEM” value came to 0.625. This compound showed an IC50 against WEE1 [2] of 47 nM.
Take `CN1CCC(n2cc(Nc3ncc4c(=O)n(-c5c(Cl)cccc5Cl)cc(Br)c4n3)cn2)CC1` [Compound P1, 8-bromo-6-(2,6-dichlorophenyl)-2-[[1-(1-methyl-4-piperidyl)pyrazol-4-yl]amino]pyrido[4,3-d]pyrimidin-5-one]: on WEE1 [1], the WEE1 Guava MEC Guava MEC is 0.625 µM and the “WEE1 Guava MEC with 20 nM GEM” value amounted to 0.156. Further, the IC50 against WEE1 [2] was determined as 41 nM.
Consider `C=CCn1c(=O)c2cnc(Nc3ccc(N4CCN(C)CC4)cc3)nc2n1-c1cccc(C(C)(C)O)n1` [AZD1775], for which, on PLK1, the IC50 is 159 nM.
Regarding `CN1CCN(c2ccc(Nc3ncc4c(=O)n(-c5c(Cl)cccc5Cl)cc(Br)c4n3)cc2)CC1` [Compound P21, 8-bromo-6-(2,6-dichlorophenyl)-2-[4-(4-methylpiperazin-1-yl)anilino]pyrido[4,3-d]pyrimidin-5-one], on WEE1 [1], the WEE1 Guava MEC Guava MEC worked out at 0.625 µM; the “WEE1 Guava MEC with 20 nM GEM” value was 0.313 and 0.625.
For the compound `O=c1c2cnc(Nc3cnn(C4CCNCC4)c3)nc2c(C2CC2)cn1-c1c(Cl)cccc1Cl` [Compound P3, 8-cyclopropyl-6-(2,6-dichlorophenyl)-2-[[1-(4-piperidyl)pyrazol-4-yl]amino]pyrido[4,3-d]pyrimidin-5-one], on WEE1 [1], the WEE1 Guava MEC Guava MEC was found to be 2.5 µM and the “WEE1 Guava MEC with 20 nM GEM” value was found to be 0.625.
For `CC(C)c1cn(-c2c(Cl)cccc2Cl)c(=O)c2cnc(Nc3cnn(C4CCNCC4)c3)nc12` [Compound P8, 6-(2,6-dichlorophenyl)-8-isopropyl-2-[[1-(4-piperidyl)pyrazol-4-yl]amino]pyrido[4,3-d]pyrimidin-5-one] the same measures were 5 µM and 1.25.
